Source: patent publication US20240270720A1, “INDAZOLE YL BENZIMIDAZOLE DERIVATIVE OR PHARMACEUTICALLY ACCEPTABLE SALT THEREOF, AND USE THEREOF” (INDUSTRY-UNIVERSITY COOPERATION FOUNDATION HANYANG …, priority 2021, published 2024)
Substitutions are numbered along the chain they refer to. Like-named read-outs stand apart in the source and are kept apart here.

Key:
[1] = target: T1, FLT3 wild type (Homo sapiens, UniProt P36888); assay: Kinase HotSpot radiometric kinase assay (Reaction Biology); type: biochemical; conditions: Table 1; read-out: FLT3 IC50
T1 construct: purchased Reaction Biology Corp. (Kinase HotSpot service)
T1 sequence (P36888 27-993): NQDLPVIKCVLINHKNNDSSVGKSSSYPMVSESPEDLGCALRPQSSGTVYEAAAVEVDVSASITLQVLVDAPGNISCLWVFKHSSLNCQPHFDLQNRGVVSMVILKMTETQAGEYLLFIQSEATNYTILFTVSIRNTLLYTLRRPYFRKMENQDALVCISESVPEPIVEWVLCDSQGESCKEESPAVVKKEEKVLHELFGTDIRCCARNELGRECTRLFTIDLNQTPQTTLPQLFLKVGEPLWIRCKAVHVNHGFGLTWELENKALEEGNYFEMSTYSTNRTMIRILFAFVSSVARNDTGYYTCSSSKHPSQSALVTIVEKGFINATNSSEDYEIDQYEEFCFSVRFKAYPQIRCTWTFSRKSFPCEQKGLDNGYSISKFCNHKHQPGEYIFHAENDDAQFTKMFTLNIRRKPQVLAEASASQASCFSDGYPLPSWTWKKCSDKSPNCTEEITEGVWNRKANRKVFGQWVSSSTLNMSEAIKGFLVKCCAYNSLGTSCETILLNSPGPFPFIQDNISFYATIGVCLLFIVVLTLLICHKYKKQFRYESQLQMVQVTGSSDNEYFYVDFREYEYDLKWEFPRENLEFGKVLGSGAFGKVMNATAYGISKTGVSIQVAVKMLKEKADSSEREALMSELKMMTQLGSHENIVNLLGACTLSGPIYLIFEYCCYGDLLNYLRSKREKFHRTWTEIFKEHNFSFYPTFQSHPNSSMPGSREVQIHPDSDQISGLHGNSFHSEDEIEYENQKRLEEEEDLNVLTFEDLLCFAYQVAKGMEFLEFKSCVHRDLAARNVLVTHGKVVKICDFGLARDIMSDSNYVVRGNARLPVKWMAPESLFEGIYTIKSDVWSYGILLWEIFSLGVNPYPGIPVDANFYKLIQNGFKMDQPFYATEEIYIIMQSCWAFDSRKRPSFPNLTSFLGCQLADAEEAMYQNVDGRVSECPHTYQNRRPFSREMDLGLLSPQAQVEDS
Procedure: (§1) Reaction Biology Corp. Kinase HotSpot SM service (www.reactionbiology.com) was used to determine IC50 values for all compounds and kinase profiles. The analysis protocol was as follows: In a final reaction volume of 25 μL, a peptide substrate, [[sequence]], 5 μM, ATP 10 μM, and FLT3(h) (5 to 10 mU) were incubated with 25 mM Tris pH 7.5, 0.02 mM EGTA, 0.66 mg/mL myelin basic protein, 10 mM Mg acetate and [γ-33P-ATP] (a concentration of approximately 500 cpm/pmol was required for specific activity). The reaction was initiated by adding the Mg-ATP mixture. After incubation at room temperature for 40 minutes, the reaction was stopped by adding 5 μL of a 3% phosphoric acid solution. Thereafter, 10 μL of the reactant was spotted on a P30 filter mat and washed three times for 5 minutes in 75 mM phosphoric acid and once in methanol before drying and scintillation counting.

[2] = target: T2, FLT3 (D835Y) (Homo sapiens, UniProt P36888, D835Y); assay: as above
T2 sequence (P36888 27-993 D835Y): T1 sequence (P36888 27-993) with D809Y
Procedure: as §1

[3] = read-out: FLT3 (D835Y) IC50, Table 1

Structure (SMILES)	IC50 [1]	IC50 [2, 3]	melting point	IC50 [2]
Cc1cn(-c2cc(C(=O)Nc3ccc4[nH]c(-c5ccc6cn[nH]c6c5)nc4c3)cc(C(F)(F)F)c2)cn1 [Compound 8b, N-(2-(1H-indazol-6-yl)-1H-benzo[di]imidazol-5-yl)-3-(4-methyl-1H-imidazol-1-yl)-5-(trifluoromethyl)benzamide]	639 nM	110 nM	239 to 241 °C	–
O=C(Nc1ccc2[nH]c(-c3ccc4cn[nH]c4c3)nc2c1)c1cc(N2CCOCC2)cc(C(F)(F)F)c1 [Compound 8d, N-(2-(1H-indazol-6-yl)-1H-benzo[di]imidazol-5-yl)-3-morpholino-5-(trifluoromethyl)benzamide]	1030 nM	151 nM	195 to 196 °C	–
O=C(Nc1ccc2[nH]c(-c3ccc4cn[nH]c4c3)nc2c1)c1ccc(N2CCOCC2)c(C(F)(F)F)c1 [Compound 8f, N-(2-(1H-indazol-6-yl)-1H-benzo[di]imidazol-5-yl)-4-morpholino-3-(trifluoromethyl)benzamide]	2510 nM	370 nM	202 to 204 °C	–
O=C(Nc1ccc2[nH]c(-c3ccc4cn[nH]c4c3)nc2c1)c1cnn(-c2ccccc2)c1C(F)(F)F [Compound 8g, N-(2-(1H-indazol-6-yl)-1H-benzo[di]imidazol-5-yl)-1-phenyl-5-(trifluoromethyl)-1H-pyrazole-4-carboxamide]	1100 nM	–	258 to 260 °C	–
CC(C)(C)c1cc(C(=O)Nc2ccc3[nH]c(-c4ccc5cn[nH]c5c4)nc3c2)no1 [Compound 8h, N-(2-(1H-indazol-6-yl)-1H-benzo[di]imidazol-5-yl)-5-(tert-butyl)isoxazole-3-carboxamide]	~700 nM	–	147 to 149 °C	32 nM
COc1ccc(/C=C/C(=O)Nc2ccc3[nH]c(-c4ccc5cn[nH]c5c4)nc3c2)cc1 [Compound 8k, (E)-N-(2-(1H-indazol-6-yl)-1H-benzo[di]imidazol-5-yl)-3-(4-methoxyphenyl)acrylamide]	761 nM	–	206 to 208 °C	–
CC(C)(C)c1cc(NC(=O)Nc2ccc3[nH]c(-c4ccc5cn[nH]c5c4)nc3c2)no1 [Compound 8l, 1-(2-(1H-indazol-6-yl)-1H-benzo[di]imidazol-5-yl)-3-(5-(tert-butyl)isoxazol-3-yl)urea]	1170 nM	–	184 to 186 °C	–
O=C(Nc1ccc(Cl)c(Cl)c1)Nc1ccc2[nH]c(-c3ccc4cn[nH]c4c3)nc2c1 [Compound 8m, 1-(2-(1H-indazol-6-yl)-1H-benzo[di]imidazol-5-yl)-3-(3,4-dichlorophenyl)urea]	3080 nM	–	144 to 146 °C	~1000 nM
CCN(CC)C1CCN(c2cc(C(=O)Nc3ccc4[nH]c(-c5ccc6cn[nH]c6c5)nc4c3)cc(C(F)(F)F)c2)C1 (centres unmarked) [Compound 8o, N-(2-(1H-indazol-6-yl)-1H-benzo[di]imidazol-5-yl)-3-(3-(diethylamino)pyrrolidin-1-yl)-5-(trifluoromethyl)benzamide]	841 nM	120 nM	221 to 223 °C	–
CN1CCC(Nc2cc(C(=O)Nc3ccc4[nH]c(-c5ccc6cn[nH]c6c5)nc4c3)cc(C(F)(F)F)c2)CC1 [Compound 8s, N-(2-(1H-indazol-6-yl)-1H-benzo[di]imidazol-5-yl)-3-((1-methylpiperidin-4-yl)amino)-5-(trifluoromethyl)benzamide]	–	–	175 to 177 °C	–
CN1CCC(Oc2cc(C(=O)Nc3ccc4[nH]c(-c5ccc6cn[nH]c6c5)nc4c3)cc(C(F)(F)F)c2)CC1 [Compound 8u, N-(2-(1H-indazol-6-yl)-1H-benzo[di]imidazol-5-yl)-3-((1-methylpiperidin-4-yl)oxy)-5-(trifluoromethyl)benzamide]	–	55 nM	293 to 295 °C	–
CN1CCC[C@@H](Nc2cc(C(=O)Nc3ccc4[nH]c(-c5ccc6cn[nH]c6c5)nc4c3)cc(C(F)(F)F)c2)C1 [Compound 8v, N-(2-(1H-indazol-6-yl)-1H-benzo[di]imidazol-5-yl)-3-((1-methylpiperidin-3-yl)amino)-5-(trifluoromethyl)benzamide]	–	–	213 to 214 °C	–
CN1CCC(Oc2ccc(C(=O)Nc3ccc4[nH]c(-c5ccc6cn[nH]c6c5)nc4c3)cc2C(F)(F)F)CC1 [Compound 8x, N-(2-(1H-indazol-6-yl)-1H-benzo[di]imidazol-5-yl)-4-((1-methylpiperidin-4-yl)oxy)-3-(trifluoromethyl)benzamide]	743 nM	–	293 to 295 °C	–

Further lines, results first:

IC50 [1]	IC50 [2, 3]	melting point	IC50 [2]	Structure (SMILES)
181 nM	21 nM	228 to 230 °C	–	CN1CCN(c2cc(C(=O)Nc3ccc4[nH]c(-c5ccc6cn[nH]c6c5)nc4c3)cc(C(F)(F)F)c2)CC1 [Compound 8a, N-(2-(1H-indazol-6-yl)-1H-benzo[di]imidazol-5-yl)-3-(4-methylpiperazin-1-yl)-5-(trifluoromethyl)benzamide]
470 nM	–	251 to 253 °C	–	Cc1nccn1-c1cc(C(=O)Nc2ccc3[nH]c(-c4ccc5cn[nH]c5c4)nc3c2)cc(C(F)(F)F)c1 [Compound 8c, N-(2-(1H-indazol-6-yl)-1H-benzo[di]imidazol-5-yl)-3-(2-methyl-1H-imidazol-1-yl)-5-(trifluoromethyl)benzamide]
154 nM	44 nM	160 to 161 °C	–	CN1CCN(c2ccc(C(=O)Nc3ccc4[nH]c(-c5ccc6cn[nH]c6c5)nc4c3)cc2C(F)(F)F)CC1 [Compound 8e, N-(2-(1H-indazol-6-yl)-1H-benzo[di]imidazol-5-yl)-4-(4-methylpiperazin-1-yl)-3-(trifluoromethyl)benzamide]
287 nM	–	283 to 285 °C	–	CN(C)C1CCN(c2cc(C(=O)Nc3ccc4[nH]c(-c5ccc6cn[nH]c6c5)nc4c3)cc(C(F)(F)F)c2)C1 (centres unmarked) [Compound 8n, N-(2-(1H-indazol-6-yl)-1H-benzo[di]imidazol-5-yl)-3-(3-(dimethylamino)pyrrolidin-1-yl)-5-(trifluoromethyl)benzamide]
523 nM	–	150 to 152 °C	–	O=C(Nc1ccc2[nH]c(-c3ccc4cn[nH]c4c3)nc2c1)c1cc(CN2CCN(C3CC3)CC2)cc(C(F)(F)F)c1 [Compound 8q, N-(2-(1H-indazol-6-yl)-1H-benzo[di]imidazol-5-yl)-3-((4-cyclopropylpiperazin-1-yl)methyl)-5-(trifluoromethyl)benzamide]
290 nM	–	164 to 166 °C	–	CCN1CCN(Cc2ccc(C(=O)Nc3ccc4[nH]c(-c5ccc6cn[nH]c6c5)nc4c3)cc2C(F)(F)F)CC1 [Compound 8w, N-(2-(1H-indazol-6-yl)-1H-benzo[di]imidazol-5-yl)-4-((4-ethylpiperazin-1-yl)methyl)-3-(trifluoromethyl)benzamide]
